The text below walks through data of ChEMBL document CHEMBL4627257, “Targeting the DNA damage response (DDR) by natural compounds” (Bioorg Med Chem, 2020).

The test system of data set [1] is SU.86.86. Description: Induction of DNA damage in human SU8686 cells assessed as increase in gammaH2AX phosphorylation at […] at cytotoxic IC50 in presence of 5 uM cisplatin by fluorometry method. The data set is classed as functional.
Data set [2] concerns SU.86.86. Description: Induction of DNA damage in human SU8686 cells assessed as increase in gammaH2AX phosphorylation at […] at cytotoxic IC50 in presence of 0.3 uM doxorubicin by fluorometry method. It counts as functional.
The test system of data set [3] is SU.86.86. Kind of data set: Induction of DNA damage in human SU8686 cells assessed as increase gammaH2AX protein level at IC50 for 24 hrs in presence of 0.3 uM doxorubicin by western blot analysis. It counts as functional, cell-based. On the technique in general: Immunoblotting shows a protein as a band on a membrane.
Data set [4] concerns SU.86.86. Description: Induction of DNA damage in human SU8686 cells assessed as increase gammaH2AX protein level at IC50 for 24 hrs by western blot analysis. It counts as functional, cell-based.
Data set [5] deals with SU.86.86. Kind of data set: Induction of DNA damage in human SU8686 cells assessed as increase gammaH2AX protein level at IC50 for 24 hrs in presence of 5 uM cisplatin by western blot analysis. The data set is classed as functional, cell-based.
For data set [6], the system named is SU.86.86. Description: Induction of DNA damage in human SU8686 cells assessed as increase in gammaH2AX phosphorylation at […] at cytotoxic IC50 incubated for 24 hrs by fluorometry method. The data set is classed as functional.
Data set [7] has as its system SU.86.86. Kind of data set: Induction of DNA damage in human SU8686 cells assessed as tail DNA formation at IC50 by alkaline Comet assay. It counts as functional, cell-based.
For data set [8], the system named is SU.86.86. Kind of data set: Induction of DNA damage in human SU8686 cells assessed as increase in gammaH2AX nuclear foci under basal condition at IC50 by fluorometry method. The data set is classed as functional, cell-based.
Data set [9] concerns SU.86.86. Description: Induction of DNA damage in human SU8686 cells assessed as tail DNA formation at IC50 in presence of 5 uM cisplatin by alkaline Comet assay. It counts as functional, cell-based.
The nature of data set [10]: Drug uptake in human SU8686 cells assessed as increase in doxorubicin uptake by flow cytometry analysis. The data set is classed as ADME, cell-based. The conditions noted are these: su.86.86. On the technique in general: Flow cytometry measures light scatter and fluorescence of single cells or particles in a stream.
The subject of another data set is BXPC-3. Kind of data set: Cytotoxicity against human BxPC3 cells assessed as cell viability after 72 hrs incubated with resazurin sodium salt by Alamar blue assay. The data set is classed as functional. On the technique in general: Resazurin is reduced to fluorescent resorufin, in cell work by metabolically active cells.
The test system of data set [11] is SU.86.86. Kind of data set: Cytotoxicity against human SU8686 cells assessed as cell viability after 72 hrs incubated with resazurin sodium salt by Alamar blue assay. It counts as functional.

Molecules are shown by their SMILES. The source made the active and inactive calls. The rule behind the calls is not given here.

For `C=C1CCC[C@H]2[C@](C)(CC3=C(O)C(=O)C=C(OC)C3=O)[C@@H](C)CC[C@@]12C`, the Activity is listed as >20% in the data set with SU.86.86 [1], >20% in the data set on SU.86.86 [2] and >30% with SU.86.86 [6]. In addition, the outcome with SU.86.86 [3], in the data set on SU.86.86 [4], with SU.86.86 [5], in the data set on SU.86.86 [7] and with SU.86.86 [8] was Active.
Take `CC1=CCC[C@H]2[C@@](C)(CC3=C(O)C(=O)C=C(NCCc4ccccc4)C3=O)[C@@H](C)CC[C@@]12C`: the Activity is reported as >20% with SU.86.86 [1] and >30% with SU.86.86 [6]. Further, the outcome in the data set with SU.86.86 [4], in the data set on SU.86.86 [9], in the data set with SU.86.86 [7] and in the data set with SU.86.86 [8] was Active. Also, in [10], the Drug uptake entry is “Active”.
Turning to `COC(=O)[C@@]12Oc3ccc(-c4ccc5c(c4O)C(=O)C4=C(O)C[C@H](C)[C@H](O)[C@]4(C(=O)OC)O5)c(O)c3C(=O)C1=C(O)C[C@H](C)[C@H]2O`, the Activity in the data set with SU.86.86 [1] was >20%; in the data set on SU.86.86 [2], >20%; in the data set on BXPC-3 it was 2.5 µM; with SU.86.86 [6], >30%; with SU.86.86 [11] it was 3 µM. Besides, the result in the data set with SU.86.86 [5], with SU.86.86 [7] and in the data set on SU.86.86 [8] was Active.
